Measurements reported in US5980913A, “Peptides having immunomodulatory activity” (Biochem Pharma, Inc., priority 1994, dated 1999).
One block for each molecule: values may come before it. Where a SMILES comes first, the peptide text is derived from it. [ ]: non-standard residue; d: D form.

Key:
B cells = experiment: Activation of B cells by mitogenic proliferation (LPS, PWM); format: cell-based, C57BL/6 mice
Text: c) Activation of T or B cells by Mitogenic Proliferation
A mitogenic lectin (mitogen) is a glycoprotein which binds and cross-links specific cells surface carbohydrate determinants, and will polyclonally stimulate lymphoid cells. Lymphocyte activation by either antigens or mitogens results in intracellular changes and the subsequent development into a lymphoblast. Mitogenic stimulation of lymphocytes in vitro is believed to mimic the series of events which occur in vivo following their stimulation by specific antigens. PHA and ConA; PWM and LPS mitogens can be used as a measurement of T cell and B cell activity, respectively. Briefly, the spleen mononuclear leukocytes from C57BL/6 mice are incubated in the presence or absence of mitogens with or without candidate drugs. After 72 hours or 5 days, ^3 H-thymidine incorporation is recorded as an indication of cell proliferation.
Lymphocytes were isolated from mice spleen or human blood in accordance to methods well known in the art. 100 μl of cell suspension of 2×10^6 cells/ml was added per well (2x10^5 cells/well) and incubated in the presence of lectin at the following concentrations:
PWM=0.2 to 0.02% final concentration
Cells were incubated for 3 days with PHA or ConA, or 5 days with PWM or LPS. 1 μCi of tritiated thymidine was added to each well for the last 6 hours (or 0.5 μCi for 18 hrs). The cells were harvested in a cell Harvester (Tortech®) and counted in a Beta counter.

P815 target cells = experiment: Cytotoxic T lymphocytes (CTL) assay, 51Cr release, after 5 days mixed culture with drug; format: cell-based, C57BL/6 mice
Text: 1. Cytotoxic T Lymphocytes (CTL) Mixed Lymphocyte Reaction (MLR) and Mitogenic Response Assays
The protocols used are described in Hudson L., Haay F., Pratical immunology, 3rd edition, Blackwell, Scientific publications, Oxford 1989, p. 158-162, and p.447.
Lymphocytes were isolated from C57BL/6 mice and DBA/2 mice in accordance to techniques well known in the art. Cell concentration was adjusted to 10×10^6 cell/ml for each assay. The cells isolated from DBA/2 mice were irradiated with 3000 Rads.
In a 6 well plate, each well was set up with:
The cells were incubated for five days at 37° C. in 5% CO2, after which CTL and MLR assays were performed.
a) Cytotoxic T Lymphocytes (CTL)
P815 target cells were labelled with Cr^51 (0.1 mCi). After labelling, the cells were washed three times and resuspended to a concentration of 5×10^4 cells/ml in media. p T cells were then counted and diluted to obtain a concentration of 2.5×10^6 cells/ml, and then further diluted to obtain the following effector:target ratios:
100 μl of target cells+100 μl of CTLs were incubated for 4 hours. In parallel wells, 100 μl of target cells+100 μl of media were incubated for spntaneous release. After incubation, cells were centrifuged and 100 μl of supernatant was then counted using a gamma counter.
Results are expressed as % specific ^51 Cr release= [formula] where ER=experimental release, SR=spontaneous releaase, and
0 represents less than 20%, + represents 20-40%, ++ represents 40-60%, +++ represent 60-80%, and ++++ represents 80% and over.

NK cells = experiment: Functional in vivo/ex vivo NK cell assay, spleen cells, effector:target ratio 100:1; parameters: species or system mice; details: for NK cell assay, % response of CTL: CTL = control
Protocol: (§1) C57BL.backslash.6 mice are treated with 0, 50, 100, 200, and 300 mg/kg of drug (in saline) for 4 consecutive days. Blood is taken by cardiac puncture on day 5, and the lymphocytes are isolated from spleen in the following manner:
(§2) The spleen is aseptically removed and mashed by pressing against a steel strainer with a rubber plunger. The cell suspension is separated from the clumps by letting them settle at the bottom of the tube. The cell suspension is then separated on a Lymphocyte M layer and the interface is recovered and resuspended in media.
Important in immunosurveillance, NK cells are capable of lysing tumors, virus-infected or embryo-derived cells in vitro spontaneously without prior sensitization. Immunomodulators are evaluated using murine splenocytes and human peripheral blood mononuclear leukocytes.
Spleen cells were used to test for NK activity at a effector:target ratio of 100:1.

T and B cells in spleen = experiment: In vivo/ex vivo mitogenic proliferation of T and B cells (spleen); parameters: species or system C57BL/6 mice; details: FIGS. 1A-1D
Protocol: as §1, §2
2. Mitogenic proliferation of T and B cells (spleen)

[1] = Stability in Rat Whole Blood at 37° C., HPLC; format: in vitro ADME; parameters: half-life: dose or concentration left out as unconfirmed; details: for HPLC AREA: rat whole blood 37° C.
Protocol: Eluent: A=CH3 CN B=Ammonium Acetate 0.01 M pH 6
Stock solution of the peptide is prepared at a concentration of 1.lmg/ml and dissolved in 10% CH3 CN/H2 O.
Rat Whole Blood (EDTA) is spiked with the peptide to give a concentration of […].
Same concentration of 10% CH3 CN/H2 O is also spiked to Rat Whole Blood (EDTA) as a control blank.
Aliquotes of […] are taken (in duplicate) of both spiked and control blanks at the following times:
FOR BLANK BLOOD: 0', 90'.
Each aliquoted samples are centrifuged at 4° C., 4400 rpm for 10 minutes.
3. Extraction Procedure: Liquid--Liquid Extraction
For each plasma sample, 100 μl of plasma are transferred to an eppendorf vial and 200 μl of acetonitrile added to it. The mixture is vortexed for 30 seconds and centrifuged at 4° C., 5 minutes 14000 rpm (Centra MP4R centrifuge, rotor # IEC 851). 200 μl of supernatant are transferred to another vial and evaporated to dryness with the Speed vac Plus (Savant SC-110A). The dried sample is reconstituted with […] of Mobile phase and an aliquote of this is injected to HPLC(high pressure liquid chromatography) for analysis.

[2] = concentration not given, 0 not defined

Compound: NCCCC[C@H](N)C(=O)N[C@@H](CC(N)=O)C(=O)N1CCC[C@H]1C(=O)N[C@@H](Cc1ccc(O)cc1)C(=O)O [PEPTIDE #1, H-Lys-Asn-Pro-Tyr-OH] (H-KNPY-OH)
Activation of B Cells, PWM (B cells; 10^-6 - 10^-4 M): 1.7 - 4 ×
Activation of B Cells, LPS (B cells; 10^-10 - 10^-4 M): 1.9 - 3.6 ×
stimulation of B cells in vitro (in words) (B cells; summary of Table 1): stimulates CTL's and B cells
CTL, % augmentation compared to IL-2 (IL-2 is 100%) (P815 target cells; 10^-7 M): ++ (++ represents 40-60%)
stimulation of CTL in vitro (in words) (P815 target cells; summary of Table 1): stimulates CTL's
NK cell assay, % response of IL-2 (NK cells; 50 mg/kg): 48.34%
NK cell assay, Average (NK cells; 50 mg/kg): 2.52
NK cell assay, % response of CTL (NK cells; 50 mg/kg): 112.48%
NK cell assay, % response of IL-2 (NK cells; 100 mg/kg): 69.48%
NK cell assay, Average (NK cells; 100 mg/kg): 3.63
NK cell assay, % response of CTL (NK cells; 100 mg/kg): 161.66%
NK cell assay, % response of IL-2 (NK cells; 200 mg/kg): 53.13%
NK cell assay, Average (NK cells; 200 mg/kg): 2.77
NK cell assay, % response of CTL (NK cells; 200 mg/kg): 123.63%
NK cell assay, % response of IL-2 (NK cells; 300 mg/kg): 58.49%
NK cell assay, Average (NK cells; 300 mg/kg): 3.05
NK cell assay, % response of CTL (NK cells; 300 mg/kg): 136.11%
activation of T and B cells in spleen in vivo/ex vivo (in words) (T and B cells in spleen): activate T and B cells

HPLC AREA ([1]; 0 min): 2471958
HPLC AREA ([1]; 5 min): 2362251.2
HPLC AREA ([1]; 10 min): 2386700
HPLC AREA ([1]; 15 min): 2965610
HPLC AREA ([1]; 30 min): 2038700.5
HPLC AREA ([1]; 45 min): 2186985.5
HPLC AREA ([1]; 60 min): 2194185.5
HPLC AREA ([1]; 75 min): 2559208.5
HPLC AREA ([1]; 90 min): 2263081.5
half-life ([1]; rat, rat whole blood (EDTA), 37° C.): > 1.5 h
Compound: NCCCC[C@@H](N)C(=O)N[C@@H](CC(N)=O)C(=O)N1CCC[C@H]1C(=O)N[C@@H](Cc1ccc(O)cc1)C(=O)O [PEPTIDE #5, H-(D-Lys)-Asn-Pro-Tyr-OH] (H-[dK]NPY-OH)
Activation of B Cells, LPS (B cells; [2]): 0
Activation of B Cells, PWM (B cells; [2]): 0
CTL, % augmentation compared to IL-2 (IL-2 is 100%) (P815 target cells; 10^-9 M): ++++ (++++ represents 80% and over)
